In the supplement of paper PMC10627819:

What was measured:
[1] = tested on: S. aureus DSM 20231; test: Bliss interaction score (quartile over a dose matrix) (fitness difference); higher = more antagonism (negative = synergy)
Outline: (§1)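 Fitness was OD595 at entry into stationary phase divided by the plate's robust no-drug mean and capped at 1; single-drug fitness was inferred from combination data. The Bliss score is observed minus expected (product) fitness, summarised by quartiles over technical, biological and donor/recipient replicates.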

[2] = tested on: S. pneumoniae D39V; test: as above
Outline: as §1

[3] = tested on: B. subtilis 168; test: as above
Outline: as §1

[4] = tested on: S. aureus Newman; test: as above
Outline: as §1

[5] = tested on: S. aureus DSM 20231; test: fitness (endpoint OD595 vs no drug) (fraction); higher = more growth
Outline: (§2)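 Cultures at OD595 0.01 were dispensed into 384-well plates in TSB, LB Lennox or CY and incubated at 37 °C. Every 30 min for 14 h, OD595 was read and corrected by the first reading. Fitness is the optical density at entry into stationary phase relative to the robust mean of no-drug control wells, capped at 1.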

[6] = tested on: S. pneumoniae D39V; test: as above
Outline: as §2

[7] = tested on: B. subtilis 168; test: as above
Outline: as §2

[8] = tested on: S. aureus Newman; test: as above
Outline: as §2
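For Bliss interaction score (quartile over a dose matrix) in this document: first quartile when negative (synergy) and third quartile when positive (antagonism).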

Cc1ncc([N+](=O)[O-])n1CCO [Metronidazole] + CN[C@@H]1[C@H](O)[C@H](NC)[C@H]2O[C@@]3(O)C(=O)C[C@@H](C)O[C@H]3O[C@@H]2[C@H]1O [Spectinomycin]
Conditions	Bliss interaction score
[1]	0.0691
[2]	0.044
[3]	-0.0603
[4]	0.0758

fitness
Conditions	partner 2 µg/mL	partner 4 µg/mL	partner 8 µg/mL	partner 16 µg/mL
[5], first compound 0.625 µg/mL	–	0.973	0.944	0.887
[5], first compound 1.25 µg/mL	–	0.946	0.958	0.852
[5], first compound 2.5 µg/mL	–	0.976	≥ 1	0.924
[6], first compound 1.073 µg/mL	–	0.94	0.976	0.909
[6], first compound 2.145 µg/mL	–	0.946	0.944	0.881
[6], first compound 4.29 µg/mL	–	0.901	0.9	0.878
[7], first compound 0.625 µg/mL	0.947	0.963	0.949	–
[7], first compound 1.25 µg/mL	0.973	0.953	0.889	–
[7], first compound 2.5 µg/mL	0.976	0.95	0.91	–
[8], first compound 0.625 µg/mL	–	0.94	0.909	0.929
[8], first compound 0.781 µg/mL	–	0.893	0.974	0.91
[8], first compound 1.25 µg/mL	–	0.98	0.98	0.932
[8], first compound 1.562 µg/mL	–	0.93	0.998	0.928
[8], first compound 2.5 µg/mL	–	0.951	0.926	0.926
[8], first compound 3.124 µg/mL	–	0.895	0.98	0.935

fitness, one replicate
Conditions	first compound 0.625 µg/mL	first compound 1.25 µg/mL	first compound 2.5 µg/mL	first compound 5 µg/mL
[5], partner 32 µg/mL	0.703	0.684	0.689	–
[5], partner 64 µg/mL	0.0868	0.121	0.103	–
[6], partner 4 µg/mL	–	≥ 1	≥ 1	≥ 1
[6], partner 8 µg/mL	–	0.964	0.99	0.986
[8], partner 32 µg/mL	0.685	0.656	0.596	–
[8], partner 64 µg/mL	0.101	0.147	0.134	–

COc1ccc(C[C@H](N)C(=O)N[C@H]2[C@@H](O)[C@H](n3cnc4c(N(C)C)ncnc43)O[C@@H]2CO)cc1 [Puromycin] + CC1=C\[C@@H](O)CC(=O)Cc2nc(co2)C(=O)N2CCC=C2C(=O)O[C@H](C(C)C)[C@H](C)/C=C/C(=O)NC\C=C\1 [Virginiamycin M1]
Conditions	Bliss interaction score
[1]	0.0808
[2]	0.0811
[3]	0.0535
[4]	0.0481

Conditions	fitness
[5], first compound 0.39 µg/mL, partner 0.0625 µg/mL	0.981
[5], first compound 0.39 µg/mL, partner 0.125 µg/mL	≥ 1
[5], first compound 0.39 µg/mL, partner 0.25 µg/mL	0.926
[5], first compound 0.78 µg/mL, partner 0.125 µg/mL	0.807
[5], first compound 0.78 µg/mL, partner 0.25 µg/mL	0.978
[5], first compound 1.56 µg/mL, partner 0.0625 µg/mL	0.998
[5], first compound 1.56 µg/mL, partner 0.125 µg/mL	≥ 1
[5], first compound 1.56 µg/mL, partner 0.25 µg/mL	0.98
[6], first compound 1 µg/mL, partner 0.5 µg/mL	0.976
[6], first compound 1 µg/mL, partner 1 µg/mL	0.952
[6], first compound 1 µg/mL, partner 2 µg/mL	0.908
[6], first compound 2 µg/mL, partner 0.5 µg/mL	0.986
[6], first compound 2 µg/mL, partner 1 µg/mL	0.969
[6], first compound 2 µg/mL, partner 2 µg/mL	0.886
[6], first compound 4 µg/mL, partner 0.5 µg/mL	0.847
[6], first compound 4 µg/mL, partner 1 µg/mL	0.783
[6], first compound 4 µg/mL, partner 2 µg/mL	0.804
[7], first compound 0.39 µg/mL, partner 0.0625 µg/mL	0.975
[7], first compound 0.39 µg/mL, partner 0.125 µg/mL	0.947
[7], first compound 0.39 µg/mL, partner 0.25 µg/mL	≥ 1
[7], first compound 0.78 µg/mL, partner 0.0625 µg/mL	0.94
[7], first compound 0.78 µg/mL, partner 0.125 µg/mL	0.908
[7], first compound 0.78 µg/mL, partner 0.25 µg/mL	0.963
[7], first compound 1.56 µg/mL, partner 0.0625 µg/mL	0.948
[7], first compound 1.56 µg/mL, partner 0.125 µg/mL	0.884
[7], first compound 1.56 µg/mL, partner 0.25 µg/mL	0.87
[8], first compound 0.39 µg/mL, partner 0.0625 µg/mL	0.988
[8], first compound 0.39 µg/mL, partner 0.125 µg/mL	≥ 1
[8], first compound 0.39 µg/mL, partner 0.25 µg/mL	0.999
[8], first compound 0.78 µg/mL, partner 0.0625 µg/mL	0.986
[8], first compound 0.78 µg/mL, partner 0.125 µg/mL	≥ 1
[8], first compound 0.78 µg/mL, partner 0.25 µg/mL	0.984
[8], first compound 1.56 µg/mL, partner 0.0625 µg/mL	0.998
[8], first compound 1.56 µg/mL, partner 0.125 µg/mL	0.977
[8], first compound 1.56 µg/mL, partner 0.25 µg/mL	0.986

one replicate
Conditions	fitness
[5], first compound 0.39 µg/mL, partner 0.5 µg/mL	0.858
[5], first compound 0.39 µg/mL, partner 1 µg/mL	0.798
[5], first compound 0.78 µg/mL, partner 0.5 µg/mL	0.924
[5], first compound 0.78 µg/mL, partner 1 µg/mL	0.917
[5], first compound 1.56 µg/mL, partner 0.5 µg/mL	0.939
[5], first compound 1.56 µg/mL, partner 1 µg/mL	0.941
[5], first compound 3.12 µg/mL, partner 0.0625 µg/mL	0.99
[5], first compound 3.12 µg/mL, partner 0.125 µg/mL	0.996
[5], first compound 3.12 µg/mL, partner 0.25 µg/mL	0.931
[5], first compound 6.24 µg/mL, partner 0.0625 µg/mL	0.67
[5], first compound 6.24 µg/mL, partner 0.125 µg/mL	0.706
[5], first compound 6.24 µg/mL, partner 0.25 µg/mL	0.851
[6], first compound 1 µg/mL, partner 0.15 µg/mL	≥ 1
[6], first compound 1 µg/mL, partner 0.3 µg/mL	≥ 1
[6], first compound 2 µg/mL, partner 0.15 µg/mL	≥ 1
[6], first compound 2 µg/mL, partner 0.3 µg/mL	0.983
[6], first compound 4 µg/mL, partner 0.15 µg/mL	0.981
[6], first compound 4 µg/mL, partner 0.3 µg/mL	0.948
[8], first compound 0.39 µg/mL, partner 0.5 µg/mL	0.877
[8], first compound 0.39 µg/mL, partner 1 µg/mL	≥ 1
[8], first compound 0.39 µg/mL, partner 2 µg/mL	0.907
[8], first compound 0.78 µg/mL, partner 0.5 µg/mL	0.948
[8], first compound 0.78 µg/mL, partner 1 µg/mL	0.988
[8], first compound 0.78 µg/mL, partner 2 µg/mL	0.87
[8], first compound 1.56 µg/mL, partner 0.5 µg/mL	0.942
[8], first compound 1.56 µg/mL, partner 1 µg/mL	≥ 1
[8], first compound 1.56 µg/mL, partner 2 µg/mL	0.919
